Tests used:
[1] = target: recombinant human ACC1 (Homo sapiens (Human), UniProt Q13085); assay: Inhibition of enzymatic activity of ACC1 (ADP-Glo chemiluminescence); format: biochemical; conditions: recombinant human ACC1 protein 2 nM, ATP 20 μM, acetyl-CoA 10 μM, NaHCO3 30 mM
Experimental: (§1) The degree of inhibition of the enzymatic activity of recombinant human ACC1, ACC2 proteins under in-vitro conditions by the preferred compounds of the present disclosure is determined by the following method.
The principle of the method was based on the reaction of ACC protein-catalyzed acetyl-CoA to form malonyl-CoA. ATP was consumed during this reaction and ADP was produced. The produced ADP was reconverted into ATP by using ADP-Glo™ Kinase Kit from Promega. This part of ATP reacted with the luciferase-fluorescence in the kit, and generated chemiluminescent signals. Thus, by measuring the intensity of chemiluminescent signal, the amount of ADP produced in the catalytic reaction was reflected, thereby indirectly determining the enzymatic activity of ACC protein and the effect of the tested compound on the enzymatic activity. The main reagents used included ACC1, ACC2 proteins (purchased from BPS bioscience, ACC1 Art. No. 50200, ACC2 Art. No. 50201), acetyl-CoA (acetyl-CoA, purchased from Sigma, Art. No. A2056), NaHCO3 (purchased from Sigma, Art. No. S6014), ADP-Glo™ Kinase assay kit (purchased from Promega, Art. No. V9102).
The test procedure was briefly described as follows: firstly, a 1× buffer solution required for the reaction was prepared, comprising: 50 mM HEPES (pH7.4 purchased from Invitrogen, Art. No. 15630), 2 mM magnesium chloride (MgCl2, purchased from Sigma, Art. No. M1028), 2 mM potassium citrate (Potassium citrate, purchased from Sigma, Art. No. 89306), 0.01% Brij-35 detergent (purchased from Merck, Art. No. 203728), 2 mM DTT (purchased from Sigma, Art. No. D0632). The test compound powder was dissolved in DMSO to prepare a stock solution having a concentration of 10 mM, followed by three-fold dilution to prepare the concentration required for the test, and each compound was set at 10 concentration points ranging from 10 μm to 0.5 nM. Firstly, appropriate amount of ACC protein (2 nM) was added to a 384-well microplate, and then diluted test compound solutions were added to each well. A duplicate well was provided at each concentration, and a solution control group (blank group) and a negative control group (DMSO group) were set at the same time. The 384-well plates were then shaken on a microwell plate oscillator and incubated for 15 minutes at room temperature. Thereafter, a substrate mixture containing ATP, acetyl-CoA and NaHCO3 which was diluted with the aforementioned buffer solution was added to each well to start the reaction, and the final concentrations of the three components were respectively ATP 20 μM, acetyl-CoA 10 μM, and NaHCO3 30 mM. After reacting for 30 minutes at room temperature, the corresponding reaction solution and detection solution were added to each well according to the method in the specification of ADP-Glo™ Kinase assay kit (referring to the specification of the kit for specific methods). Finally, the relative light unit (RLU) values of each well were tested using an Envision 2104 multi-function microplate reader (Perkin Elmer). The percentage inhibition rate of a compound at a concentration on ACC enzyme activity was calculated by the following formula: Inhibition rate %=[(RLU average value of negative control wells−RLU average value of blank control wells)−(RLU average values of test wells−RLU average values of blank control wells)]/(RLU average values of negative control wells−RLU average values of blank control wells)*100
Finally, nonlinear regression analysis of the logarithm of the concentration of the compound and the percentage inhibition rate of the corresponding concentration was carried out in the GraphPad Prism5 software to obtain the half maximal inhibitory concentration (IC50) of the compound.

[2] = Oral pharmacokinetic research in SD rats (plasma and liver, LC/MS/MS); format: in vivo; conditions: male, Sprague-Dawley (SD), rat, intragastric, 10 mg/kg
Experimental: SD rat was used as the experimental animal. The drug concentrations in plasma and liver at different times were tested after the rats were intragastrically administered with the compound of Example 19 by LC/MS/MS methods, so as to research the pharmacokinetic characteristics of compound of present disclosure in rats.
An appropriate amount of experimental drug was weighed, and 0.5% sodium carboxymethylcellulose (CMC-Na) was added, and the mixture was milled to prepare a 1 mg/mL suspension;
6 healthy adult male rats were divided into 2 groups, fasted overnight and respectively intragastrically administered with the drug at a dosage of 10 mg/kg, at a volume of 10 mL/kg. The rats were feed 2 h after the administration.
Blood was collected by jugular vein puncture, and about 0.25 mL was collected for each sample, which was anticoagulated by using heparin sodium, and the samples were placed on ice after collection. The time points of blood collection were as follows:
The first group of animals: blood collection time: before administration, and 0.083 h, 0.25 h, 0.5 h, 1 h, 2 h, 4 h, 6 h, 8 h and 24 h after administration.
The second group of animals: the animals were euthanized 0.5 h after administration, and the liver tissues were collected, 3 rats/time point.
Blood samples were collected and placed on ice, and plasma was separated by centrifugation (centrifugation conditions: 8000 rpm, 6 min, 2-8° C.). The collected plasma was stored at −80° C. before analysis.
The content of the test compound in the plasma and liver of the rats after intragastrically administration was analyzed by LC-MS/MS.

[3] = target: recombinant human ACC2 (Homo sapiens (Human), UniProt O00763); assay: Inhibition of enzymatic activity of ACC2 (ADP-Glo chemiluminescence); format: biochemical; conditions: recombinant human ACC2 protein 2 nM, ATP 20 μM, acetyl-CoA 10 μM, NaHCO3 30 mM
Experimental: as §1
The principle of the method was based on the reaction of ACC protein-catalyzed acetyl-CoA to form malonyl-CoA. ATP was consumed during this reaction and ADP was produced. The produced ADP was reconverted into ATP by using ADP-Glo™ Kinase Kit from Promega. This part of ATP reacted with the luciferase-fluorescence in the kit, and generated chemiluminescent signals. […]
The test procedure was briefly described as follows: firstly, a 1× buffer solution required for the reaction was prepared, comprising: 50 mM HEPES (pH7.4 purchased from Invitrogen, Art. No. 15630), 2 mM magnesium chloride (MgCl2, purchased from Sigma, Art. No. M1028), 2 mM potassium citrate (Potassium citrate, purchased from Sigma, Art. No. 89306), 0.01% Brij-35 detergent (purchased from Merck, Art. No. 203728), 2 mM DTT (purchased from Sigma, Art. No. D0632). […] Finally, the relative light unit (RLU) values of each well were tested using an Envision 2104 multi-function microplate reader (Perkin Elmer). […]

recombinant human ACC2, sequence (O00763 whole entry): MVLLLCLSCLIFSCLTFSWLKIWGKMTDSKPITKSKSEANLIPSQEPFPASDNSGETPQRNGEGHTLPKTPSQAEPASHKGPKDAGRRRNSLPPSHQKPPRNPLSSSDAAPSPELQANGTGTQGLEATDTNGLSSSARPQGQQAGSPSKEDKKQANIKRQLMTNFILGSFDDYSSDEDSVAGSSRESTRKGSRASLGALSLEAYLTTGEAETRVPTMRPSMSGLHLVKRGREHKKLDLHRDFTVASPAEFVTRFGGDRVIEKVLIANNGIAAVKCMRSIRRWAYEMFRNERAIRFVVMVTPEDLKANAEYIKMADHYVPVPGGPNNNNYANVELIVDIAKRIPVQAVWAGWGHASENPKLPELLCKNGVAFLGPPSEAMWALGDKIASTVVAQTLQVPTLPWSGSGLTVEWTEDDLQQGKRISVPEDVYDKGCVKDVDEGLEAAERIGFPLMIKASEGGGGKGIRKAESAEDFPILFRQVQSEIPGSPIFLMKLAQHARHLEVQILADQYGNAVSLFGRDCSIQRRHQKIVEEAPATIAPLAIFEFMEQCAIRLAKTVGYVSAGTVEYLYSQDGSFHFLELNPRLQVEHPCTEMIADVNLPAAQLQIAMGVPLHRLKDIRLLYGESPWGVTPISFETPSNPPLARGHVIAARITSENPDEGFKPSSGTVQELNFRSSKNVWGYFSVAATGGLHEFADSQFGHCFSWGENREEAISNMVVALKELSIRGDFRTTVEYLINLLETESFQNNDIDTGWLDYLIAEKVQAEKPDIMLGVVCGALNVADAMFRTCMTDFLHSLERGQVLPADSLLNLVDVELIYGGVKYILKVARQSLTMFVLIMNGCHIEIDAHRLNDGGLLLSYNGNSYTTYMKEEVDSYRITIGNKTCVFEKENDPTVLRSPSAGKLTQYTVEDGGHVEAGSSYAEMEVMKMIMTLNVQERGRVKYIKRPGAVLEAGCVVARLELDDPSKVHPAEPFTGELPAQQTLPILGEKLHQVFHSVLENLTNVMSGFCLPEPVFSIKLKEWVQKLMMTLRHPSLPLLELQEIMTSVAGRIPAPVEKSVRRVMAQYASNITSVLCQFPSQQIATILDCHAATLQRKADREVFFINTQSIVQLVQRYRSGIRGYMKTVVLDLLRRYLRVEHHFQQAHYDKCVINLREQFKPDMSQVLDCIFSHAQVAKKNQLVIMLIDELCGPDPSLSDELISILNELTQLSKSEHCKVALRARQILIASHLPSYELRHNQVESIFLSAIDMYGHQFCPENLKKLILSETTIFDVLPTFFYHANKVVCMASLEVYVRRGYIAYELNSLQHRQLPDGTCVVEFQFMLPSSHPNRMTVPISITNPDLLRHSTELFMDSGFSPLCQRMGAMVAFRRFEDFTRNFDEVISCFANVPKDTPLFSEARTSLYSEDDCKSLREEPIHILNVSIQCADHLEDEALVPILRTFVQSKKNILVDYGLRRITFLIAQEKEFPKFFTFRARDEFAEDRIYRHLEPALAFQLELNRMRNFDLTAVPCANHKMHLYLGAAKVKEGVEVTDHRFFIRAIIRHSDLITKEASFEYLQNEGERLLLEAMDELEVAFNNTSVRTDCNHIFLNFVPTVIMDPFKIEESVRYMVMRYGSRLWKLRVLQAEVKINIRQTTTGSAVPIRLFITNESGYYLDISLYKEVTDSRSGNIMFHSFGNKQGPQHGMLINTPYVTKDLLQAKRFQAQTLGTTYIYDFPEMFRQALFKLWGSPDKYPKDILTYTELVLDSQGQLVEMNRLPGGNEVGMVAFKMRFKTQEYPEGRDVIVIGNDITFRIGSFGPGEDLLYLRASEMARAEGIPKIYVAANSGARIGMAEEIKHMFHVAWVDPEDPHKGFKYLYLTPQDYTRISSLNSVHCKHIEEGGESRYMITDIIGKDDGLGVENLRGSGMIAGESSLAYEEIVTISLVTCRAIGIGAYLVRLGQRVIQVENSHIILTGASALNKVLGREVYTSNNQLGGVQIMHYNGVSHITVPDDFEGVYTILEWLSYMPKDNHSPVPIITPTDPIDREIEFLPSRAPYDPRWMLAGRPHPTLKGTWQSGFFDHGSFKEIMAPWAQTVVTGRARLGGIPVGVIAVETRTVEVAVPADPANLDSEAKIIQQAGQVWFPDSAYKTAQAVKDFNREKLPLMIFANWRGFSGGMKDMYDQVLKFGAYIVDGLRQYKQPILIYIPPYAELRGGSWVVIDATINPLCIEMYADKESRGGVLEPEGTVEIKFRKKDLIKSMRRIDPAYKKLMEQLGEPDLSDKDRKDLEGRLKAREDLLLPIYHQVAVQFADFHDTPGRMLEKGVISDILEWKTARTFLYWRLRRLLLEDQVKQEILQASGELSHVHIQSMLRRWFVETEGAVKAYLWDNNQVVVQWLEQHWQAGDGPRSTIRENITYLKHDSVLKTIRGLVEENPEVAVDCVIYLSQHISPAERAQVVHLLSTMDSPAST

Row | Structure (SMILES) | IC50 [1] [nM] | further results
1 | COc1ccccc1C(Cn1c(=O)n(C(C)(C)C(=O)O)c(=O)c2c(C)c(C#N)sc21)OC1CCOCC1 (stereo not shown) [Example 1, 2-(6-Cyano-1-(2-(2-methoxyphenyl)-2-((tetrahydro-2H-pyran-4-yl)oxy)ethyl)-5-methyl-2,4-dioxo-1,2-dihydrothiopheno[2,3-d]pyrimidin-3(4H)-yl)-2-methylpropionic acid] | 38 | 
2 | COc1ccccc1[C@@H](Cn1c(=O)n(C(C)(C)C(=O)O)c(=O)c2c(C)c(C#N)sc21)OC1CCOCC1 [Example 2, (S)-2-(6-Cyano-1-(2-(2-methoxyphenyl)-2-((tetrahydro-2H-pyran-4-yl)oxy)ethyl)-5-methyl-2,4-dioxo-1,2-dihydrothiopheno[2,3-d]pyrimidin-3(4H)-yl)-2-methylpropionic acid] | 16 | 
3 | COc1ccccc1[C@H](Cn1c(=O)n(C(C)(C)C(=O)O)c(=O)c2c(C)c(C#N)sc21)OC1CCOCC1 [Example 3, (R)-2-(6-cyano-1-(2-(2-methoxyphenyl)-2-((tetrahydro-2H-pyran-4-yl)oxy)ethyl)-5-methyl-2,4-dioxo-1,2-dihydrothiopheno[2,3-d]pyrimidin-3(4H)-yl)-2-methylpropionic acid] | 11.6 | 
4 | COc1ccc(F)cc1C(Cn1c(=O)n(C(C)(C)C(=O)O)c(=O)c2c(C)c(C#N)sc21)OC1CCOCC1 (stereo not shown) [Example 4, 2-(6-Cyano-1-(2-(5-fluoro-2-methoxyphenyl)-2-((tetrahydro-2H-pyran-4-yl)oxy)ethyl)-5-methyl-2,4-dioxo-1,2-dihydrothiopheno[2,3-d]pyrimidin-3(4H)-yl)-2-methylpropionic acid] | 16.5 | 
5 | CCOc1ccccc1C(Cn1c(=O)n(C(C)(C)C(=O)O)c(=O)c2c(C)c(C#N)sc21)OC1CCOCC1 (stereo not shown) [Example 6, 2-(6-Cyano-1-(2-(2-ethoxyphenyl)-2-((tetrahydro-2H-pyran-4-yl)oxy)ethyl)-5-methyl-2,4-dioxo-1,2-dihydrothiopheno[2,3-d]pyrimidin-3(4H)-yl)-2-methylpropionic acid] | 21 | 
6 | COc1ccc(F)cc1[C@H](Cn1c(=O)n(C(C)(C)C(=O)O)c(=O)c2c(C)c(C#N)sc21)OC1CCOCC1 [Example 11, (R)-2-(6-Cyano-1-(2-(5-fluoro-2-methoxyphenyl)-2-((tetrahydro-2H-pyran-4-yl)oxy)ethyl)-5-methyl-2,4-dioxo-1,2-dihydrothiopheno[2,3-d]pyrimidin-3(4H)-yl)-2-methylpropionic acid] | 15 | 
7 | Cc1c(C#N)sc2c1c(=O)n(C(C)(C)C(=O)O)c(=O)n2CC(OC1CCOCC1)c1ccccc1OCC1CC1 (stereo not shown) [Example 13, 2-(6-Cyano-1-(2-(2-(cyclopropylmethoxy)phenyl)-2-((tetrahydro-2H-pyran-4-yl)oxy)ethyl)-5-methyl-2,4-dioxo-1,2-dihydrothiopheno[2,3-d]pyrimidin-3(4H)-yl)-2-methylpropionic acid] | 36 | 
8 | Cc1c(C#N)sc2c1c(=O)n(C(C)(C)C(=O)O)c(=O)n2CC(OC1CCOCC1)c1cc(F)ccc1OCCF (stereo not shown) [Example 14, 2-(6-Cyano-1-(2-(5-fluoro-2-(2-fluoroethoxy)phenyl)-2-((tetrahydro-2H-pyran-4-yl)oxy)ethyl)-5-methyl-2,4-dioxo-1,2-dihydrothiopheno[2,3-d]pyrimidin-3(4H)-yl)-2-methylpropionic acid] | 7.9 | 
9 | CCOc1ccc(F)cc1C(Cn1c(=O)n(C(C)(C)C(=O)O)c(=O)c2c(C)c(C#N)sc21)OC1CCOCC1 (stereo not shown) [Example 15, 2-(6-Cyano-1-(2-(2-ethoxy-5-fluorophenyl)-2-((tetrahydro-2H-pyran-4-yl)oxy)ethyl)-5-methyl-2,4-dioxo-1,2-dihydrothiopheno[2,3-d]pyrimidin-3(4H)-yl)-2-methylpropionic acid] | 4.4 | 
10 | Cc1c(C#N)sc2c1c(=O)n(C(C)(C)C(=O)O)c(=O)n2CC(OC1CCOCC1)c1cc(F)ccc1OCC#N (stereo not shown) [Example 17, 2-(6-Cyano-1-(2-(2-(cyanomethoxy)-5-fluorophenyl)-2-((tetrahydro-2H-pyran-4-yl)oxy)ethyl)-5-methyl-2,4-dioxo-1,2-dihydrothiopheno[2,3-d]pyrimidin-3(4H)-yl)-2-methylpropionic acid] | 20.7 | 
11 | CCOc1ccc(F)cc1[C@H](Cn1c(=O)n(C(C)(C)C(=O)O)c(=O)c2c(C)c(C#N)sc21)OC1CCOCC1 [Example 19, (R)-2-(6-cyano-1-(2-(2-ethoxy-5-fluorophenyl)-2-((tetrahydro-2H-pyran-4-yl)oxy)ethyl)-5-methyl-2,4-dioxo-1,2-dihydrothiopheno[2,3-d]pyrimidin-3(4H)-yl)-2-methylpropionic acid] | 2.7 | concentration at 0.5 h ([2]; oral, liver, 0.5 h after administration, read-out: drug concentration in the liver): 46800 ± 14000 ng/mL; Cmax ([2]; po, plasma, read-out: Blood concentration Cmax): 920 ± 362 ng/mL; AUC(0-inf) ([2]; po, plasma, read-out: Curve area AUC0-∞): 1940 ± 1190 ng·h/mL; half-life ([2]; po, plasma, read-out: Half-life period T½ (converted)): 3.39 ± 0.65 h; MRT ([2]; po, plasma, read-out: Residence time MRT): 2.82 ± 0.34 h; IC50 [3]: 6 nM
12 | Cc1c(C#N)sc2c1c(=O)n(C(C)(C)C(=O)O)c(=O)n2C[C@H](OC1CCOCC1)c1cc(F)ccc1OCCF [Example 21, (R)-2-(6-cyano-1-(2-(5-fluoro-2-(2-fluoroethoxy)phenyl)-2-((tetrahydro-2H-pyran-4-yl)oxy)ethyl)-5-methyl-2,4-dioxo-1,2-dihydrothiopheno[2,3-d]pyrimidin-3(4H)-yl)-2-methylpropionic acid] | 6.4 | IC50 [3]: 22 nM

— patent US11142531B2, “Cyano substituted heteroarylpyrimidinone derivative, preparation method and use thereof” (ZHEJIANG HISUN PHARMACEUTICAL CO., LTD., priority 2017, dated 2021)
